Columns and labels:
Assay type in all cases: in vitro ADME
Conditions in all cases: at 50 µM
[1] = target: T1, UGT1A9 (Homo sapiens, UniProt O60656); test: UGT1A9 mycophenolic acid glucuronidation inhibition in human liver microsomes
T1 construct: pooled human liver microsomes (0.2 mg/mL), 5 mM UDPGA; tissue Corning Life Sciences; host or cells: pooled human liver microsomes (150 donors)
T1 sequence (O60656 26-530): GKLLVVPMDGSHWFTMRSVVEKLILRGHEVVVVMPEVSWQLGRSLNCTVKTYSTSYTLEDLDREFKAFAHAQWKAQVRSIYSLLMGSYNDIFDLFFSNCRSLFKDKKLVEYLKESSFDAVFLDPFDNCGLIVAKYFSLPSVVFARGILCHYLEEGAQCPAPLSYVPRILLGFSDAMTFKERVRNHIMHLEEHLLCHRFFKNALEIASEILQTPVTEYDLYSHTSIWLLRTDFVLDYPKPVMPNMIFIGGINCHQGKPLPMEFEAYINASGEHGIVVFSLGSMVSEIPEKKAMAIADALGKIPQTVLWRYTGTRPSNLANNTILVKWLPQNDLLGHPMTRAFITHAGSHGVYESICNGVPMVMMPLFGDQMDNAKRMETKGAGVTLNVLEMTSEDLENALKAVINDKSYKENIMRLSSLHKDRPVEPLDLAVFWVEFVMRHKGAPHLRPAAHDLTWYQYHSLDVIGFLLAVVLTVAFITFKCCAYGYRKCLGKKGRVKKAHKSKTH
Method: (§1) After 3 min of pre-incubation at 37 °C, the reactions were initiated by addition of UDPGA; incubation continued for 60 min at 37 °C in a shaking water bath. The reaction was stopped by placing the tubes on ice and adding 50 µL ice-cold acetonitrile containing internal standards (propofol glucuronide for chenodeoxycholic acid 24-acyl-β-glucuronide and mycophenolic acid glucuronide, and meloxicam for SN-38 glucuronide, trifluoperazine glucuronide, N-acetylserotonin β-D-glucuronide, and naloxone 3-β-D-glucuronide). The incubation mixtures were centrifuged (13,000× g, 4 min, 4 °C). All assays were performed in triplicate and average values were used in calculations.
(§2) The metabolites formed from the six UGT cocktail substrates were measured simultaneously using the LC-MS/MS method. The ESI source settings in both positive- and negative-ion modes for metabolite ionization were: capillary voltage, 4200 V; vaporizer temperature, 350 °C; capillary temperature, 330 °C; sheath gas pressure, 35 psi; and auxiliary gas pressure, 15 psi. […] Data were processed using Xcalibur software.
(§3) The apparent kinetic parameters for inhibitory potential (Ki and kinact values) and inhibition mode were estimated from the fitted curves using the Enzyme Kinetics program (ver. 1.1; Systat Software Inc., San Jose, CA, USA).

[2] = target: T2, CYP2C19 (Homo sapiens, UniProt P33261); test: CYP2C19 [S]-mephenytoin 4′-hydroxylase inhibition in human liver microsomes
T2 construct: pooled human liver microsomes (0.2 mg/mL); tissue Corning Life Sciences; host or cells: pooled human liver microsomes (150 donors)
Method: After a 3-min pre-incubation at 37 °C, the reactions were initiated by addition of NADPH and incubation proceeded for 15 min at 37 °C in a shaking water bath. […] The incubation mixtures were centrifuged (13,000× g, 4 min, 4 °C). All assays were performed in triplicate and mean values were used in calculations.
Each reaction was initiated by adding the seven-CYP probe substrate cocktail.
(§4) The metabolites formed from CYP substrates were quantified simultaneously by a LC-MS/MS method described previously. The ESI source settings in positive-ion mode for metabolite ionization were: capillary voltage, 4200 V; vaporizer temperature, 350 °C; capillary temperature, 330 °C; sheath gas pressure, 35 psi; and auxiliary gas pressure, 15 psi. […] Analytical data were processed using Xcalibur software (version 2.1, Thermo Scientific).
as §3

[3] = target: T3, CYP2B6 (Homo sapiens, UniProt P20813); test: CYP2B6 bupropion hydroxylase inhibition in ultrapool human liver microsomes
T3 construct: pooled human liver microsomes (0.2 mg/mL); tissue Corning Life Sciences; host or cells: pooled human liver microsomes (150 donors)
T3 sequence (P20813 1-491): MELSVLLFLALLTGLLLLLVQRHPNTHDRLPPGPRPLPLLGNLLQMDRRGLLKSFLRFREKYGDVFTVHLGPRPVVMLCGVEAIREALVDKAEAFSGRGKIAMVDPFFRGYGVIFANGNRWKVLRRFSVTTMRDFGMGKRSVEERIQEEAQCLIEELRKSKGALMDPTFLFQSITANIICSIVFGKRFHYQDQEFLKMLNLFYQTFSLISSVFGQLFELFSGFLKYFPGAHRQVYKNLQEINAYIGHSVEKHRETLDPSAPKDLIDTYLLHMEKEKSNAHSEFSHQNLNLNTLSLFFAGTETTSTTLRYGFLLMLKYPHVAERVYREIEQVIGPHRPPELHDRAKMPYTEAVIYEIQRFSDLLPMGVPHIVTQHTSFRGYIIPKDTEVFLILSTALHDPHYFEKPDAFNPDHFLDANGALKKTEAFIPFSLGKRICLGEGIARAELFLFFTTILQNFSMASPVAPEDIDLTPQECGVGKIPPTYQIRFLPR
Method: All incubations were performed in triplicate, and average values were used.
as §4, §3

[4] = target: T4, UGT1A6 (Homo sapiens, UniProt P19224); test: UGT1A6 N-acetylserotonin glucuronidation inhibition in human liver microsomes
T4 construct: pooled human liver microsomes (0.2 mg/mL), 5 mM UDPGA; tissue Corning Life Sciences; host or cells: pooled human liver microsomes (150 donors)
T4 sequence (P19224 27-532): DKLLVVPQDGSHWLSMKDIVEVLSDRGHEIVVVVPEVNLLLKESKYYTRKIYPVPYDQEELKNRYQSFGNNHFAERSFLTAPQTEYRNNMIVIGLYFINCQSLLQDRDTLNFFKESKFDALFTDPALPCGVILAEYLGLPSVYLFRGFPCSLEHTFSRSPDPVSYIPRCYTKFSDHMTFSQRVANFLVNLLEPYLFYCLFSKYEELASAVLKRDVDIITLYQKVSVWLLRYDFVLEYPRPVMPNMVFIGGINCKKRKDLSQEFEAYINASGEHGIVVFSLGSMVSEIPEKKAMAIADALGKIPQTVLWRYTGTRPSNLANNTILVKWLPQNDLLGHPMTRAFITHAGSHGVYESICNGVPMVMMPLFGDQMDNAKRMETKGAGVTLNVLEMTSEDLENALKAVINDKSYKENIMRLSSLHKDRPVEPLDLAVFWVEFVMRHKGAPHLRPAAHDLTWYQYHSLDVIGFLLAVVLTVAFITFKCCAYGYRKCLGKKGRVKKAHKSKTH
Method: as §1, §2, §3

T2 sequence (P33261 whole entry): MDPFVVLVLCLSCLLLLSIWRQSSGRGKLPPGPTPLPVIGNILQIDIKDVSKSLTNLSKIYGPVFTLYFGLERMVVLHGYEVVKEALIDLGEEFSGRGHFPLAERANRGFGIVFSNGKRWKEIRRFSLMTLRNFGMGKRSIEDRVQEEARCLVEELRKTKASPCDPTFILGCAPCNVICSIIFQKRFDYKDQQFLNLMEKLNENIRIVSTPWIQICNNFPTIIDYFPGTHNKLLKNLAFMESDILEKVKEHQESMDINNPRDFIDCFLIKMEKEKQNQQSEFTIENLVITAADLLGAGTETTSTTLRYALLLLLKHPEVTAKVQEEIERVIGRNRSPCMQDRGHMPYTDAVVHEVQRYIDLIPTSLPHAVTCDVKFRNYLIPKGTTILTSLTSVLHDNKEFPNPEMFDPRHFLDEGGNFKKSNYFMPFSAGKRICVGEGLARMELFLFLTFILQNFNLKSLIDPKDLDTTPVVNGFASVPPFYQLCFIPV

O=C(c1cccc2ccccc12)c1cn(CCCCCF)c2ccccc12 [AM-2201, 1-(5-fluoropentyl-1H-indol-3-yl)-(naphthalene-1-yl)methanone]
negligibly inhibited: inhibition of UGT1A9-catalyzed mycophenolic acid glucuronidation [1] | inhibition of CYP2C19-mediated [S]-mephenytoin 4′-hydroxylation [2] | inhibition of CYP2B6-mediated bupropion hydroxylation [3] | inhibition of UGT1A6-catalyzed N-acetylserotonin glucuronidation [4]
